Experimental data published in US20140357577A1, “HIV Membrane Fusion Inhibitors” (priority 2011, published 2014).
pEC50: −log10 of the molar value. Starred links: 1 amine or outer side, 2 acyl side, 3 side chain; linkers in the order of their positions; H or OH if unused. *: point of attachment. cholesteryl‑oxycarbonylmethyl = CC(C)CCC[C@@H](C)[C@H]1CC[C@H]2[C@@H]3CC=C4C[C@@H](OC(=O)C*)CC[C@]4(C)[C@H]3CC[C@]12C; cholesteryl‑succinyl = CC(C)CCC[C@@H](C)[C@H]1CC[C@H]2[C@@H]3CC=C4C[C@@H](OC(=O)CCC(=O)*)CC[C@]4(C)[C@H]3CC[C@]12C; Palmitoyl = CCCCCCCCCCCCCCCC(=O)*; Suc = O=C(CCC(=O)[*:2])[*:1]; Hexanoyl = CCCCCC(=O)*; Pentanoyl = CCCCC(=O)*

Tests used:
[1] = tested on: HIV wild type virus strain IIIB; test: Standard Anti-Viral-Experiment (AVE), HIV-1 replication assay in MT4-LTR-EGFP cells, wild type IIIB; type: cell-based; details: 3 days, EGFP signal
Description: (§1) • Standard Anti-Viral-Experiment “AVE” (wild type HIV strain IIIB+HIV strain HXB2D side directed mutants V38A and Q40H)
(§2) The HIV-1 replication assay measures virus replication (HIV wild type virus strain 111B or HXB2D, or a HIV mutant virus strain HXB2D with mutation V38A or Q40H in the gp41 gene) as an induction of enhanced green fluorescent protein (EGFP) expression. The indicator MT4-LTR-EGFP cells contain an EGFP gene under the control of the HIV-1 LTR promoter sequence. Successful HIV-1 infection results in viral Tat protein expression and subsequent induction of EGFP expression. Compounds/peptides inhibiting HIV-1 infection are expected to reduce EGFP expression as compared to the untreated HIV-infected control.
(§3) Serial 4-fold dilutions of test compounds/peptides were mixed with HIV-1 (IIIB, HXB2D, or a HXB2D mutant virus (V38A or Q40H)) and MT4-LTR-EGFP cells and incubated at 37° C. After 3 days, the wells were examined for EGFP expression using an argon laser-scanning microscope. The effective compound/peptide concentration inhibiting 50% of the virus-induced EGFP signal (EC50) was determined by linear interpolation of the EGFP signal vs. logarithm of the compound concentration; (T20, C34 and Sifuvirtide were added as reference compounds). For the V38A and Q40H mutant viruses, results were reported as a fold change in EC50, as compared with a drug-susceptible wild type strain HXB2D, which forms the backbone of the mutant virus. • Standard AVE (50% Human Serum)

[2] = tested on: HIV mutant virus strain HXB2D with mutation Q40H in the gp41 gene; test: Standard AVE, HXB2D site directed mutant Q40H; type: cell-based, HIV-1; details: fold change vs wild type strain HXB2D
Description: as §1, §2, §3

HIV-IIIB + 50% HS = test: Standard AVE (50% Human Serum), HIV-1 replication assay in MT4-LTR-EGFP cells; type: cell-based; details: fold change vs EC50 in the assay without human serum
Description: The HIV-1 replication assay (with 50% human serum) measures virus replication as an induction of enhanced green fluorescent protein (EGFP) expression, in the presence of 50% human serum. The indicator MT4-LTR-EGFP cells contain an EGFP gene under the control of the HIV-1 LTR promoter sequence. Successful HIV-1 infection results in viral Tat protein expression and subsequent induction of EGFP expression. Compounds/peptides inhibiting HIV-1 infection are expected to reduce EGFP expression as compared to the untreated HIV-infected control. Compounds/peptides binding to human serum are expected to have a reduced activity for inhibiting the virus in the assay.
Serial 4-fold dilutions of test compounds/peptides were mixed with HIV-1 and MT4-LTR-EGFP cells and incubated at 37° C., in the presence of 50% human serum. After 3 days, the wells were examined for EGFP expression using an argon laser-scanning microscope. The effective compound/peptide concentration inhibiting 50% of the virus-induced EGFP signal (EC50) was determined by linear interpolation of the EGFP signal vs. logarithm of the compound concentration; T20, C34 and Sifuvirtide were added as reference compounds. Results were reported as a fold change in EC50, as compared with the acquired EC50 in the assay without human serum.

Substance | pEC50 [1] | HIV-HXB2D Q40H mutant (fold change in EC50) [2] | HIV-IIIB + 50% HS (Fold change in EC50) (HIV-IIIB + 50% HS)
Ac-ANYLALIEALIRAAQEQQEKNEAALRGSGK(cholesteryl-succinyl)-NH2 (Ac-ANYLALIEALIRAAQEQQEKNEAALRGSGK(cholesteryl‑succinyl)-NH2; SMILES CC[C@H](C)[C@H](NC(=O)[C@H](CC(C)C)NC(=O)[C@H](C)NC(=O)[C@H](CCC(=O)O)NC(=O)[C@@H](NC(=O)[C@H](CC(C)C)NC(=O)[C@H](C)NC(=O)[C@H](CC(C)C)NC(=O)[C@H](Cc1ccc(O)cc1)NC(=O)[C@H](CC(N)=O)NC(=O)[C@H](C)NC(C)=O)[C@@H](C)CC)C(=O)N[C@@H](CCCNC(=N)N)C(=O)N[C@@H](C)C(=O)N[C@@H](C)C(=O)N[C@@H](CCC(N)=O)C(=O)N[C@@H](CCC(=O)O)C(=O)N[C@@H](CCC(N)=O)C(=O)N[C@@H](CCC(N)=O)C(=O)N[C@@H](CCC(=O)O)C(=O)N[C@@H](CCCCN)C(=O)N[C@@H](CC(N)=O)C(=O)N[C@@H](CCC(=O)O)C(=O)N[C@@H](C)C(=O)N[C@@H](C)C(=O)N[C@@H](CC(C)C)C(=O)N[C@@H](CCCNC(=N)N)C(=O)NCC(=O)N[C@@H](CO)C(=O)NCC(=O)N[C@@H](CCCCNC(=O)CCC(=O)O[C@H]1CC[C@@]2(C)C(=CC[C@H]3[C@@H]4CC[C@H]([C@H](C)CCCC(C)C)[C@@]4(C)CC[C@@H]32)C1)C(N)=O) [Peptide 69] | 9.52 | 11 | –
Ac-CYAACIEALIRAAQEQQEKNEAALR-NH2 [Peptide 21] | 8.30 | – | 3
Ac-CYAACIEALIRAAQEQQEKNEAALR-NH2 [Peptide 22] | 7.46 | – | 2
Ac-aCYAACIEALIRAAQEQQEKNEAALr-NH2 [Peptide 75] | 7.54 | – | 4
ENYTRQIYRILEESQEQQDRNERDLL [Slfuvlrtlde-PBD, reference compound] | 4.44 | – | 0.8
Hexanoyl-ECYLACIEELIRKAQEQQEKNEAALR-NH2 (cysteine pairing not given here) [Peptide 42] | 9.00 | 27 | –
Penlanoyl-ECYLACIEALIRAAQEQQEKNEAALR-NH2 (Pentanoyl-ECYLACIEALIRAAQEQQEKNEAALR-NH2; cysteine pairing not given here) [Peptide 39] | 8.15 | – | 5
Pentanoyl-ECYLACIEALIRAAQEQQEKNEAALR-NH2 (cysteine pairing not given here) [Peptide 38] | 9.00 | 45 | –
Pentanoyl-ECYLACIEELIRKAQEQQEKNEAALR-NH2 (cysteine pairing not given here) [Peptide 41] | 9.00 | 42 | –
SWETWEREIENYTRQIYRILEESQEQQDRNERDLLE [Sifuvirtide, reference compound] | 8.70 | 2 | –
Suc-ACYAACIEALIRAAQEQQEKNEAALR-NH2 (cysteine pairing not given here) [Peptide 67] | 8.10 | – | 0.8
Suc-ANYAALIEALIRAAQEQQEKNEAALR-NH2 (SMILES CC[C@H](C)[C@H](NC(=O)[C@H](CC(C)C)NC(=O)[C@H](C)NC(=O)[C@H](CCC(=O)O)NC(=O)[C@@H](NC(=O)[C@H](CC(C)C)NC(=O)[C@H](C)NC(=O)[C@H](C)NC(=O)[C@H](Cc1ccc(O)cc1)NC(=O)[C@H](CC(N)=O)NC(=O)[C@H](C)NC(=O)CCC(=O)O)[C@@H](C)CC)C(=O)N[C@@H](CCCNC(=N)N)C(=O)N[C@@H](C)C(=O)N[C@@H](C)C(=O)N[C@@H](CCC(N)=O)C(=O)N[C@@H](CCC(=O)O)C(=O)N[C@@H](CCC(N)=O)C(=O)N[C@@H](CCC(N)=O)C(=O)N[C@@H](CCC(=O)O)C(=O)N[C@@H](CCCCN)C(=O)N[C@@H](CC(N)=O)C(=O)N[C@@H](CCC(=O)O)C(=O)N[C@@H](C)C(=O)N[C@@H](C)C(=O)N[C@@H](CC(C)C)C(=O)N[C@@H](CCCNC(=N)N)C(N)=O) [Peptide 3] | 7.66 | – | 0.4
Suc-ANYLALIEALIRAAQEQQEKNEAAL-NH2 (SMILES CC[C@H](C)[C@H](NC(=O)[C@H](CC(C)C)NC(=O)[C@H](C)NC(=O)[C@H](CCC(=O)O)NC(=O)[C@@H](NC(=O)[C@H](CC(C)C)NC(=O)[C@H](C)NC(=O)[C@H](CC(C)C)NC(=O)[C@H](Cc1ccc(O)cc1)NC(=O)[C@H](CC(N)=O)NC(=O)[C@H](C)NC(=O)CCC(=O)O)[C@@H](C)CC)C(=O)N[C@@H](CCCNC(=N)N)C(=O)N[C@@H](C)C(=O)N[C@@H](C)C(=O)N[C@@H](CCC(N)=O)C(=O)N[C@@H](CCC(=O)O)C(=O)N[C@@H](CCC(N)=O)C(=O)N[C@@H](CCC(N)=O)C(=O)N[C@@H](CCC(=O)O)C(=O)N[C@@H](CCCCN)C(=O)N[C@@H](CC(N)=O)C(=O)N[C@@H](CCC(=O)O)C(=O)N[C@@H](C)C(=O)N[C@@H](C)C(=O)N[C@@H](CC(C)C)C(N)=O) [Peptide 1] | 8.40 | – | 0.4
Suc-ECYLRCIEELIRKAQEQQEKNEAALRGSGC(cholesteryl-oxycarbonylmethyl)-NH2 (Suc-ECYLRCIEELIRKAQEQQEKNEAALRGSGC(cholesteryl‑oxycarbonylmethyl)-NH2; cysteine pairing not given here) [Peptide 82] | 10.30 | – | 6
Suc-ECYLRCIEELIRKAQEQQEKNEAALRGSGK(palmitoyl)-NH2 (Suc-ECYLRCIEELIRKAQEQQEKNEAALRGSGK(Palmitoyl)-NH2; cysteine pairing not given here) [Peptide 88] | 10.22 | – | 3
Suc-ENYLRLIEELIRKAQEQQEKNEAALRGSGC(cholesteryl-oxycarbonylmethyl)-NH2 (Suc-ENYLRLIEELIRKAQEQQEKNEAALRGSGC(cholesteryl‑oxycarbonylmethyl)-NH2; SMILES CC[C@H](C)[C@H](NC(=O)[C@H](CC(C)C)NC(=O)[C@H](CCC(=O)O)NC(=O)[C@H](CCC(=O)O)NC(=O)[C@@H](NC(=O)[C@H](CC(C)C)NC(=O)[C@H](CCCNC(=N)N)NC(=O)[C@H](CC(C)C)NC(=O)[C@H](Cc1ccc(O)cc1)NC(=O)[C@H](CC(N)=O)NC(=O)[C@H](CCC(=O)O)NC(=O)CCC(=O)O)[C@@H](C)CC)C(=O)N[C@@H](CCCNC(=N)N)C(=O)N[C@@H](CCCCN)C(=O)N[C@@H](C)C(=O)N[C@@H](CCC(N)=O)C(=O)N[C@@H](CCC(=O)O)C(=O)N[C@@H](CCC(N)=O)C(=O)N[C@@H](CCC(N)=O)C(=O)N[C@@H](CCC(=O)O)C(=O)N[C@@H](CCCCN)C(=O)N[C@@H](CC(N)=O)C(=O)N[C@@H](CCC(=O)O)C(=O)N[C@@H](C)C(=O)N[C@@H](C)C(=O)N[C@@H](CC(C)C)C(=O)N[C@@H](CCCNC(=N)N)C(=O)NCC(=O)N[C@@H](CO)C(=O)NCC(=O)N[C@@H](CSCC(=O)O[C@H]1CC[C@@]2(C)C(=CC[C@H]3[C@@H]4CC[C@H]([C@H](C)CCCC(C)C)[C@@]4(C)CC[C@@H]32)C1)C(N)=O) [Peptide 32] | 10.40 | – | 13
Suc-ENYLRLIEELIRKAQEQQEKNEAALRGSGK(palmitoyl)-NH2 (Suc-ENYLRLIEELIRKAQEQQEKNEAALRGSGK(Palmitoyl)-NH2; SMILES CCCCCCCCCCCCCCCC(=O)NCCCC[C@H](NC(=O)CNC(=O)[C@H](CO)NC(=O)CNC(=O)[C@H](CCCNC(=N)N)NC(=O)[C@H](CC(C)C)NC(=O)[C@H](C)NC(=O)[C@H](C)NC(=O)[C@H](CCC(=O)O)NC(=O)[C@H](CC(N)=O)NC(=O)[C@H](CCCCN)NC(=O)[C@H](CCC(=O)O)NC(=O)[C@H](CCC(N)=O)NC(=O)[C@H](CCC(N)=O)NC(=O)[C@H](CCC(=O)O)NC(=O)[C@H](CCC(N)=O)NC(=O)[C@H](C)NC(=O)[C@H](CCCCN)NC(=O)[C@H](CCCNC(=N)N)NC(=O)[C@@H](NC(=O)[C@H](CC(C)C)NC(=O)[C@H](CCC(=O)O)NC(=O)[C@H](CCC(=O)O)NC(=O)[C@@H](NC(=O)[C@H](CC(C)C)NC(=O)[C@H](CCCNC(=N)N)NC(=O)[C@H](CC(C)C)NC(=O)[C@H](Cc1ccc(O)cc1)NC(=O)[C@H](CC(N)=O)NC(=O)[C@H](CCC(=O)O)NC(=O)CCC(=O)O)[C@@H](C)CC)[C@@H](C)CC)C(N)=O) [Peptide 55] | 10.30 | – | 3
Suc-aNYLALIEALIRAAQEQQEKNEAALr-NH2 [Peptide 12] | 8.00 | – | 0.4
